From the NIST ThermoML archive (doi:10.1021/acs.jced.8b00132)
Several values for one entry are separate records, joined by “and”; a condition that tells them apart may be missing. Identical values can stand only once.

Details: transient hot wire

O=C(C(F)(F)C(F)(F)F)C(F)(C(F)(F)F)C(F)(F)F [dodecafluoro-2-methylpentan-3-one]
Details | thermal conductivity
301.59 K, 15869 kPa, Liquid | 0.06313 W/m/K
301.6 K, 48023 kPa, Liquid | 0.07341 W/m/K
301.6 K, 48035 kPa, Liquid | 0.07339 W/m/K
301.61 K, 9935 kPa, Liquid | 0.06132 W/m/K
301.61 K, 9939 kPa, Liquid | 0.0613 W/m/K
301.63 K, 185 kPa, Liquid | 0.05695 W/m/K
301.63 K, 186 kPa, Liquid | 0.05695 W/m/K
301.65 K, 38555 kPa, Liquid | 0.07081 W/m/K
301.65 K, 38556 kPa, Liquid | 0.07081 W/m/K
301.66 K, 4510 kPa, Liquid | 0.05903 W/m/K
301.67 K, 181 kPa, Liquid | 0.05696 W/m/K and 0.05695 W/m/K
301.67 K, 4513 kPa, Liquid | 0.05926 W/m/K
301.68 K, 68591 kPa, Liquid | 0.07706 W/m/K
301.68 K, 68604 kPa, Liquid | 0.07747 W/m/K
301.69 K, 29956 kPa, Liquid | 0.06826 W/m/K
301.69 K, 29958 kPa, Liquid | 0.06828 W/m/K
301.69 K, 68130 kPa, Liquid | 0.07843 W/m/K
301.7 K, 58476 kPa, Liquid | 0.07534 W/m/K
301.7 K, 68201 kPa, Liquid | 0.07832 W/m/K
301.71 K, 22368 kPa, Liquid | 0.06584 W/m/K and 0.06583 W/m/K
301.71 K, 48170 kPa, Liquid | 0.07234 W/m/K
301.71 K, 58480 kPa, Liquid | 0.07563 W/m/K
301.72 K, 15988 kPa, Liquid | 0.06294 W/m/K
301.72 K, 15989 kPa, Liquid | 0.0629 W/m/K
301.72 K, 48184 kPa, Liquid | 0.07274 W/m/K
301.73 K, 38646 kPa, Liquid | 0.06956 W/m/K
301.73 K, 38651 kPa, Liquid | 0.0696 W/m/K
301.75 K, 9736 kPa, Liquid | 0.06053 W/m/K
301.75 K, 59377 kPa, Liquid | 0.07624 W/m/K
301.75 K, 59380 kPa, Liquid | 0.07624 W/m/K
301.75 K, 68800 kPa, Liquid | 0.07711 W/m/K
301.76 K, 9735 kPa, Liquid | 0.06062 W/m/K
301.76 K, 15639 kPa, Liquid | 0.06344 W/m/K
301.76 K, 29978 kPa, Liquid | 0.06731 W/m/K
301.76 K, 68808 kPa, Liquid | 0.07639 W/m/K
301.77 K, 15644 kPa, Liquid | 0.06346 W/m/K
301.78 K, 121 kPa, Liquid | 0.05702 W/m/K and 0.05701 W/m/K
301.79 K, 4434 kPa, Liquid | 0.05801 W/m/K
301.79 K, 4440 kPa, Liquid | 0.05822 W/m/K
301.79 K, 22438 kPa, Liquid | 0.06507 W/m/K
301.79 K, 22452 kPa, Liquid | 0.06502 W/m/K
301.82 K, 102 kPa, Liquid | 0.05674 W/m/K
301.82 K, 48012 kPa, Liquid | 0.07336 W/m/K
301.82 K, 48021 kPa, Liquid | 0.07338 W/m/K
301.83 K, 95 kPa, Liquid | 0.05685 W/m/K
301.85 K, 9941 kPa, Liquid | 0.06128 W/m/K
301.85 K, 9948 kPa, Liquid | 0.06126 W/m/K
301.87 K, 38549 kPa, Liquid | 0.07078 W/m/K
301.87 K, 38555 kPa, Liquid | 0.07047 W/m/K
301.88 K, 34 kPa, Gas | 0.01211 W/m/K
301.88 K, 35 kPa, Gas | 0.01203 W/m/K
301.9 K, 185 kPa, Liquid | 0.05689 W/m/K
301.91 K, 185 kPa, Liquid | 0.05664 W/m/K
301.91 K, 4509 kPa, Liquid | 0.059 W/m/K
301.91 K, 29959 kPa, Liquid | 0.06823 W/m/K
301.91 K, 67990 kPa, Liquid | 0.07824 W/m/K
301.91 K, 68063 kPa, Liquid | 0.07829 W/m/K
301.92 K, 29958 kPa, Liquid | 0.06824 W/m/K
301.93 K, 181 kPa, Liquid | 0.05689 W/m/K and 0.05687 W/m/K
301.94 K, 4507 kPa, Liquid | 0.05898 W/m/K
301.95 K, 22372 kPa, Liquid | 0.06576 W/m/K
301.95 K, 22377 kPa, Liquid | 0.06549 W/m/K
301.97 K, 59371 kPa, Liquid | 0.07623 W/m/K
301.97 K, 59377 kPa, Liquid | 0.07622 W/m/K
302.01 K, 15644 kPa, Liquid | 0.06317 W/m/K
302.01 K, 15646 kPa, Liquid | 0.06342 W/m/K
302.03 K, 121 kPa, Liquid | 0.05696 W/m/K
302.04 K, 15871 kPa, Liquid | 0.0631 W/m/K
302.04 K, 15874 kPa, Liquid | 0.0632 W/m/K
302.04 K, 48005 kPa, Liquid | 0.07334 W/m/K
302.05 K, 48000 kPa, Liquid | 0.07334 W/m/K
302.09 K, 9944 kPa, Liquid | 0.06121 W/m/K
302.09 K, 68569 kPa, Liquid | 0.07801 W/m/K
302.09 K, 68583 kPa, Liquid | 0.07807 W/m/K
302.1 K, 9951 kPa, Liquid | 0.06119 W/m/K
302.1 K, 38544 kPa, Liquid | 0.07073 W/m/K
302.11 K, 38546 kPa, Liquid | 0.07074 W/m/K
302.13 K, 58450 kPa, Liquid | 0.07511 W/m/K
302.13 K, 58453 kPa, Liquid | 0.07504 W/m/K
302.15 K, 15982 kPa, Liquid | 0.0631 W/m/K
302.15 K, 29954 kPa, Liquid | 0.06819 W/m/K and 0.0682 W/m/K
302.15 K, 48164 kPa, Liquid | 0.07319 W/m/K
302.16 K, 15975 kPa, Liquid | 0.06301 W/m/K
302.16 K, 48161 kPa, Liquid | 0.07327 W/m/K
